Measured values reported in ChEMBL document CHEMBL1201862, “PubChem BioAssay data set” (2004).
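Interpolation was linear, between the two tested concentrations surrounding the appropriate level; five concentrations were tested over 48 hours in 96-well plates. GI50 marks 50% less growth.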 Calls of active or inactive are those of the source. No stated cut-off is given here; in the data, active = GI50 up to about 1.1 µM and inactive = higher.

Columns and labels:
Test in all cases: inhibition of tumour cell growth, NCI panel, 48 h
BT-549 = tested on: BT-549
DU-145 = tested on: DU-145
HCT-116 = tested on: HCT-116
HCT-15 = tested on: HCT-15
HL-60 = tested on: HL-60
M14 = tested on: M14
MDA-MB-231 = tested on: MDA-MB-231
Malme-3M = tested on: Malme-3M
NCI-H460 = tested on: NCI-H460
PC-3 = tested on: PC-3
RPMI-8226 = tested on: RPMI-8226
SF-268 = tested on: SF-268
SF-295 = tested on: SF-295
SF-539 = tested on: SF-539
SK-MEL-28 = tested on: SK-MEL-28
SK-MEL-2 = tested on: SK-MEL-2
SK-OV-3 = tested on: SK-OV-3
SNB-75 = tested on: SNB-75
SR = tested on: SR
U-251 = tested on: U-251

Row | SMILES | GI50 (BT-549) | GI50 (DU-145) | GI50 (HCT-116) | GI50 (HCT-15) | GI50 (HL-60) | GI50 (M14) | GI50 (MDA-MB-231) | GI50 (Malme-3M) | GI50 (NCI-H460) | GI50 (PC-3) | GI50 (RPMI-8226) | GI50 (SF-268) | GI50 (SF-295) | GI50 (SF-539) | GI50 (SK-MEL-28) | GI50 (SK-MEL-2) | GI50 (SK-OV-3) | GI50 (SNB-75) | GI50 (SR) | GI50 (U-251)
1 | C/C(=N\NC(N)=S)c1nc2cccnc2[nH]1 | 24.9 µM (inactive) | 63.7 µM (inactive) | 54 µM (inactive) | 53.6 µM | 32.6 µM (inactive) | 63.1 µM (inactive) | > 70.1 µM (inactive) | > 92.9 µM (inactive) | 45.7 µM (inactive) | 81.3 µM (inactive) | > 96.6 µM (inactive) | 57.7 µM (inactive) | 84.9 µM (inactive) | 58.9 µM (inactive) | > 88.9 µM (inactive) | > 100 µM (inactive) | 30.2 µM (inactive) | > 100 µM (inactive) | 45.5 µM (inactive) | 40.8 µM (inactive)
2 | COC1CN(C)/C(=N\c2cccc3ccccc23)S1 (stereo not drawn) | > 10 µM (inactive) | > 10 µM (inactive) | > 10 µM (inactive) | > 10 µM | > 10 µM (inactive) | > 10 µM (inactive) | > 10 µM (inactive) | > 10 µM (inactive) |  | > 10 µM (inactive) | > 10 µM (inactive) | > 10 µM (inactive) | 2.75 µM (inactive) | > 10 µM (inactive) | > 10 µM (inactive) |  | > 10 µM (inactive) | > 10 µM (inactive) | > 10 µM (inactive) | > 10 µM (inactive)
3 | COCN1C(=O)[C@@H]2CCCN2C(=O)c2ccc(Cl)cc21 | > 100 µM (inactive) | > 100 µM (inactive) | > 100 µM (inactive) | > 100 µM | > 100 µM (inactive) | > 100 µM (inactive) | > 100 µM (inactive) | > 100 µM (inactive) | > 100 µM (inactive) | > 100 µM (inactive) | > 100 µM (inactive) | > 100 µM (inactive) | > 100 µM (inactive) |  | > 100 µM (inactive) | > 100 µM (inactive) | > 100 µM (inactive) | > 100 µM (inactive) | > 100 µM (inactive) | > 100 µM (inactive)
4 | O=c1cc(NNc2cccc(F)c2)[nH]c(=O)[nH]1 | > 100 µM (inactive) | > 100 µM (inactive) | 17.3 µM (inactive) | 16.9 µM | 19.1 µM (inactive) | 18.2 µM (inactive) | 16.7 µM (inactive) | 19.4 µM (inactive) | > 100 µM (inactive) | > 100 µM (inactive) | 16.7 µM (inactive) | > 100 µM (inactive) | > 100 µM (inactive) | 38.9 µM (inactive) | > 100 µM (inactive) | 40.5 µM (inactive) | > 100 µM (inactive) | > 100 µM (inactive) | 10.2 µM (inactive) | 17.2 µM (inactive)
5 | Cc1ccc(Nc2nc(=O)c3c([nH]c4ccccc43)s2)cc1 | 18.2 µM (inactive) | 18.6 µM (inactive) |  | 7.55 µM | 14.8 µM (inactive) | 6.59 µM (inactive) | 17.1 µM (inactive) | 10.6 µM (inactive) | 10.1 µM (inactive) | 15.1 µM (inactive) | 4.21 µM (inactive) | 16.7 µM (inactive) | 11.8 µM (inactive) | 15.7 µM (inactive) | 21.2 µM (inactive) | 14.2 µM (inactive) | 28.1 µM (inactive) | 16.1 µM (inactive) | 4.68 µM (inactive) | 12.8 µM (inactive)
6 | COc1ccc(C2C=C(c3ccc4c(c3)OCO4)Oc3c2c(=O)oc2ccccc32)cc1OC (stereo not drawn) | 3.18 µM (inactive) | 0.417 µM (active) | 0.482 µM (active) | 0.415 µM | 0.248 µM (active) | 0.502 µM (active) | 1.36 µM (inactive) | 0.366 µM (active) | 0.406 µM (active) | 0.429 µM (active) | 0.254 µM (active) | 0.713 µM (active) | 0.279 µM (active) | 0.308 µM (active) | > 93.1 µM (inactive) |  | 0.372 µM (active) | 0.344 µM (active) | 0.236 µM (active) | 0.413 µM (active)
7 | CCC(=O)N(c1ccccc1)C(C)CN1CCC(O)(c2ccccc2)CC1 (stereo not drawn) | > 100 µM (inactive) | > 100 µM (inactive) | 80.9 µM (inactive) | > 100 µM | > 100 µM (inactive) | > 100 µM (inactive) | > 100 µM (inactive) | > 100 µM (inactive) |  | > 100 µM (inactive) | > 100 µM (inactive) | > 100 µM (inactive) | > 100 µM (inactive) | > 100 µM (inactive) | > 100 µM (inactive) | > 100 µM (inactive) | > 100 µM (inactive) | > 100 µM (inactive) | > 100 µM (inactive) | > 100 µM (inactive)
8 | COc1cc2c(cc1OCCCN1CCN(C)CC1)N=C[C@@H]1CCCN1C2=O | 1.77 µM (inactive) | 2.25 µM (inactive) | 2.7 µM (inactive) | 2.25 µM | 1.41 µM (inactive) | 1.86 µM (inactive) | 2.18 µM (inactive) | 2.21 µM (inactive) | 2.82 µM (inactive) | 2.67 µM (inactive) | 1.04 µM (active) | 3.03 µM (inactive) | 2 µM (inactive) | 2.19 µM (inactive) | 1.9 µM (inactive) | 2.42 µM (inactive) | 2.84 µM (inactive) |  | 0.0887 µM (active) | 0.935 µM (active)
